This is an account of results in patent publication US6479520B1, “Method of treating a patient having precancerous lesions with phenyl pyridinone derivatives” (Cell Pathways, Inc., priority 1995, dated 2002).

One may read the melting point as the temperature, or range, at which the solid turns liquid. On to `CCCOc1cc(SC)ccc1-c1ccc(C#N)c(=O)[nH]1` [2(a), 3-Cyano-6-(4-methylthio-2-propoxyphenyl)-2(1H)-pyridinone], for which the melting point is 196 to 197 °C.

`CCCOc1cc(OC)ccc1-c1ccc(C#N)c(=O)[nH]1` [9(a), 3-Cyano-6-(4-methoxy-2-propoxyphenyl)-2(1H)-pyridinone] registered a melting point of 183 to 183.5 °C.
